Source: ChEMBL document CHEMBL1138225, “Synthesis and structure-activity relationships of 3,8-diazabicyclo[4.2.0]octane ligands, potent nicotinic acetylcholine receptor agonists” (J Med Chem, 2006)

How the values were obtained:
[1] = target: T1, Neuronal acetylcholine receptor; alpha3/beta4 (Homo sapiens, UniProt P30926+P32297); test: Maximal agonist activity at human alpha-3-beta-4 ACHR expressed in HEK293 cells assessed as change in intracellular calcium concentration by FLIPR relative to nicotine; type: functional, cell-based
[2] = target: T2, Neuronal acetylcholine receptor; alpha4/beta2 (Homo sapiens, UniProt P17787+P43681); test: Maximal agonist activity on human alpha-4-beta-2 ACHR expressed in HEK293 cells assessed as change in intracellular calcium concentration by FLIPR relative to nicotine; type: functional, cell-based
[3] = target: Neuronal acetylcholine receptor; alpha4/beta2 (Rattus norvegicus, UniProt P09483+P12390); test: Displacement of [3H]cytisine from alpha-4-beta-2 ACHR in rat brain homogenate; type: tissue-based
Rattus norvegicus = test: Activity in rat formalin model measured as reduction in flinches at 0.19 umol/kg, ip; type: functional; parameters: scale not given: the % may be the effect or the level left
[4] = target: T2, Neuronal acetylcholine receptor; alpha4/beta2; test: Agonist activity at human alpha4beta2 ACHR expressed in HEK293 cells assessed as change in intracellular calcium concentration by FLIPR; type: functional, cell-based
[5] = target: T1, Neuronal acetylcholine receptor; alpha3/beta4; test: Agonist activity at human alpha-3-beta-4 ACHR expressed in HEK293 cells assessed as change in intracellular calcium concentration by FLIPR; type: functional, cell-based

T2 sequence (P17787 whole entry): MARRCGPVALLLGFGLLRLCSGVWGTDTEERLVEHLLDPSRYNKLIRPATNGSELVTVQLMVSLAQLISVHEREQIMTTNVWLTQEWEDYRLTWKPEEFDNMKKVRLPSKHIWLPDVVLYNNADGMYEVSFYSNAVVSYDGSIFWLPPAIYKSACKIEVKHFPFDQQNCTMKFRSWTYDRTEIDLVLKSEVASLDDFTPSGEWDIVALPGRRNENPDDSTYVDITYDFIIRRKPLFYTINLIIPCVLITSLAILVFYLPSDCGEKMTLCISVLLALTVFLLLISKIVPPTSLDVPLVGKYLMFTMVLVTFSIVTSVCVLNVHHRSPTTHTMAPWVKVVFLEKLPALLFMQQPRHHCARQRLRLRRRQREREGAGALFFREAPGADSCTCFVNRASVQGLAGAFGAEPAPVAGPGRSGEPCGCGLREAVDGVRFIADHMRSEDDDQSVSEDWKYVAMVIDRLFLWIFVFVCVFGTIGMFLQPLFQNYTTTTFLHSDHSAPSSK
T2 sequence (P43681 whole entry): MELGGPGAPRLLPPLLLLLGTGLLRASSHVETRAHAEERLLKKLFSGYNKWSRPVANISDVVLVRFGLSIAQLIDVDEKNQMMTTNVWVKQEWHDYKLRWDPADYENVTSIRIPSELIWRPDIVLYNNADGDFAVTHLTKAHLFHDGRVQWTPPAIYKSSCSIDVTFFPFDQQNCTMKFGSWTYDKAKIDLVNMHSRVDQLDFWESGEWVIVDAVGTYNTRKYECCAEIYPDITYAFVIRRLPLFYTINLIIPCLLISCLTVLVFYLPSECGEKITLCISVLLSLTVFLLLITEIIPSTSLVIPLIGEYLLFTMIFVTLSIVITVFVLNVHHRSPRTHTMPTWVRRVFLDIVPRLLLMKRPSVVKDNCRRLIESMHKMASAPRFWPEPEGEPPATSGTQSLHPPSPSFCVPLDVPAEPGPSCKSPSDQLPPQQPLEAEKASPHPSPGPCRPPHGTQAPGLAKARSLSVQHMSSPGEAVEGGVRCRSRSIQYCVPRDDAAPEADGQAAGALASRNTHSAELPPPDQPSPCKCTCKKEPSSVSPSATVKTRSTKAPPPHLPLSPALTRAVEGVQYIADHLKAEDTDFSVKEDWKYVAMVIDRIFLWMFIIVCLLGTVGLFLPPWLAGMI
T1 sequence (P30926 whole entry): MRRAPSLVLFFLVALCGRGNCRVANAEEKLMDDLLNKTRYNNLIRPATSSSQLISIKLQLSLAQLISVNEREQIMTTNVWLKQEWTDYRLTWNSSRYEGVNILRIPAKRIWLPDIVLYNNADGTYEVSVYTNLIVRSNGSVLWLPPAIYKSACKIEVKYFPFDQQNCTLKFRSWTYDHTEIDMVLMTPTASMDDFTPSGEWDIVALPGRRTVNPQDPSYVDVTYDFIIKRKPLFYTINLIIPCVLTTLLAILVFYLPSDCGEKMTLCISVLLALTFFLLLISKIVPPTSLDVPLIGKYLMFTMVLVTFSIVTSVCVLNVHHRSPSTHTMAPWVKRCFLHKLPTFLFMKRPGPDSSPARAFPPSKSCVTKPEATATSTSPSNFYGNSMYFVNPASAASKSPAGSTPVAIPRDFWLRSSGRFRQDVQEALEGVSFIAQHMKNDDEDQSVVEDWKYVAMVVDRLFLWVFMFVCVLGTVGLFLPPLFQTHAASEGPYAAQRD
T1 sequence (P32297 whole entry): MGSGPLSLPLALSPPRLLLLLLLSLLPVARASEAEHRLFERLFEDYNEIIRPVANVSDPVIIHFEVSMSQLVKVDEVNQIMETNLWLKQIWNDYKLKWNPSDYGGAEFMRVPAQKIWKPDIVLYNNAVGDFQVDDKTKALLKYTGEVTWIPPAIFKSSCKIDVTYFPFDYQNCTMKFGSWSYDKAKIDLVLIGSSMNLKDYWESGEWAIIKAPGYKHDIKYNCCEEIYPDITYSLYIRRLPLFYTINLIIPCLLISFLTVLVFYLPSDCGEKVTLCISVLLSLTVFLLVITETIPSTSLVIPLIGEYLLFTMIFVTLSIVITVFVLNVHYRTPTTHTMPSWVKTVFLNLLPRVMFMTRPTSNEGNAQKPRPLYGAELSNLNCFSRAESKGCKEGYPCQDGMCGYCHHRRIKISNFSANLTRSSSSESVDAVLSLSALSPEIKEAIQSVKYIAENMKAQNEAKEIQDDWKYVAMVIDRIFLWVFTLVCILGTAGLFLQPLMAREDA
Sequence of Neuronal acetylcholine receptor; alpha4/beta2 (Rattus norvegicus, UniProt P09483+P12390) (P09483 whole entry): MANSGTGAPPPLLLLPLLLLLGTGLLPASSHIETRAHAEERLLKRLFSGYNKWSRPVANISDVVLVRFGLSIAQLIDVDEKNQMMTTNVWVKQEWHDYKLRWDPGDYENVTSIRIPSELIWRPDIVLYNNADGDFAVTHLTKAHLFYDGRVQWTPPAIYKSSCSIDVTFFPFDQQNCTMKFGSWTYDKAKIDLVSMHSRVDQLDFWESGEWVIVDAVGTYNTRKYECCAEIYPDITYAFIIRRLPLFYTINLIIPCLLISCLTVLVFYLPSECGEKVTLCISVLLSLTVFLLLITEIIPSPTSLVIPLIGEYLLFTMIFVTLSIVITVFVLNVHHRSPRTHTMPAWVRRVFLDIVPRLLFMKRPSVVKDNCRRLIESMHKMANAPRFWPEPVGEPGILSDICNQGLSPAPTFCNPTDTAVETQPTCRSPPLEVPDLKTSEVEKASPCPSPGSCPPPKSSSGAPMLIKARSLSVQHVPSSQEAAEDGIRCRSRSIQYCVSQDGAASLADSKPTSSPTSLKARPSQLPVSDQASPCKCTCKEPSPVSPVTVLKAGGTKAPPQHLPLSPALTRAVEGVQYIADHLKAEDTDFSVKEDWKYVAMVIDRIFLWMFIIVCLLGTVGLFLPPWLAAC
Sequence of Neuronal acetylcholine receptor; alpha4/beta2 (Rattus norvegicus, UniProt P09483+P12390) (P12390 whole entry): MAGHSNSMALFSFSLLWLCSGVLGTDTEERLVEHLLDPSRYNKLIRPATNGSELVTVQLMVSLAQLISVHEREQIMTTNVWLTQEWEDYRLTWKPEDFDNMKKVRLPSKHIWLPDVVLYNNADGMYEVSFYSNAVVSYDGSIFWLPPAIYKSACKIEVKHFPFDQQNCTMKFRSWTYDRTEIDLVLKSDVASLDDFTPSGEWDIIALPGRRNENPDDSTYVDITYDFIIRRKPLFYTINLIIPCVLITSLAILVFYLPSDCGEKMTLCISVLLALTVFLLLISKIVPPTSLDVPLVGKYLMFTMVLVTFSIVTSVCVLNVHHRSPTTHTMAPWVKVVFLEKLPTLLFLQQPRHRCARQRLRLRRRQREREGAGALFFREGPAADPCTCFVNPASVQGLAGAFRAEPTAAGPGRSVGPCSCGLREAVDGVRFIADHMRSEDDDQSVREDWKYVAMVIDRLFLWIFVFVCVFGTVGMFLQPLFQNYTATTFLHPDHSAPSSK

Clc1ccc(N2C[C@@H]3CCNC[C@@H]32)cn1
Activity [1]: 129%
Activity [2]: 94%
Ki [3]: 0.12 nM
Activity (Rattus norvegicus): 50%
EC50 [4]: 37.4 nM
EC50 [5]: 1390 nM
